Measurements: patent publication US10189854B2, “Substituted pyrimidine compounds” (Grünenthal GmbH, priority 2014, dated 2019)

Target: human PDE4B1 (Homo sapiens (Human), UniProt Q07343)
Assay: TR-FRET assay using the LANCE Ultra cAMP kit to determine the activity of hPDE4B1
Type: biochemical
Details: IC50 inhibition of PDE4B, mean
In short: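 Recombinant human PDE4B1 (Sf9-expressed, 0.96 U) incubated with compound and 500 nM cAMP in 50 mM Tris-HCl, 50 mM MgCl2, 5 mM DTT, pH 8.5, 30 min at room temperature. Residual cAMP read by TR-FRET (665/620 nm ratio) after IBMX stop. IC50 from ten-concentration curves as % inhibition of control.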

Chain of human PDE4B1 (Q07343 whole entry): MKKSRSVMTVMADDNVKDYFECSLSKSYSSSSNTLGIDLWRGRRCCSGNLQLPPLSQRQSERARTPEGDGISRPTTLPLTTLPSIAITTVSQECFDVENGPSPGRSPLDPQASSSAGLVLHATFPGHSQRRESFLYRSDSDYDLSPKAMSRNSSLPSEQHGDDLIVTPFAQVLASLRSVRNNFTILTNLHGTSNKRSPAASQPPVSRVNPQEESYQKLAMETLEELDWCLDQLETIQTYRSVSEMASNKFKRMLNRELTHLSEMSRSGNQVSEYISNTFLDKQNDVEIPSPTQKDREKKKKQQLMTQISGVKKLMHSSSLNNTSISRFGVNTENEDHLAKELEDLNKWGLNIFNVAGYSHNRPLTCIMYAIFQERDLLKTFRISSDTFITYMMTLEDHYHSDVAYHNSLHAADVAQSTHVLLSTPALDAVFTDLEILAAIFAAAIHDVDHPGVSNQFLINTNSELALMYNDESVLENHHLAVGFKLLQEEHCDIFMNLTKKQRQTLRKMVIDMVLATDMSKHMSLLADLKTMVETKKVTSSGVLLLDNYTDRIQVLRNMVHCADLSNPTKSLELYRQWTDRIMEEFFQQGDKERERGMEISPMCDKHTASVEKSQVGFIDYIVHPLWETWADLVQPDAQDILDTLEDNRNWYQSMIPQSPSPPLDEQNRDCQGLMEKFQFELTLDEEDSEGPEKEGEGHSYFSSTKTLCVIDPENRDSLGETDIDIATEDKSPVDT

SMILES	IC50 [µM]
CN(CCO)C(=O)c1ccc2c(c1)N(c1ncc(-c3cccc(O)n3)cn1)CC21CC1 [Compound 280, N-(2-Hydroxy-ethyl)-1-[5-(6-hydroxy-pyridin-2-yl)-pyrimidin-2-yl]-N-methyl-spiro[1,2-dihydro-indole-3,1′-cyclopropane]-6-carboxylic acid amide]	< 0.1
NC(=O)CN1CCN(C(=O)c2ccc3c(c2)N(c2ncc(-c4ccccc4F)cn2)CC32CC2)CC1 [Compound 236, 2-[4-[1-[5-(2-Fluorophenyl)-pyrimidin-2-yl]-spiro[1,2-dihydro-indole-3,1′-cyclopropane]-6-carbonyl]-piperazin-1-yl]-acetamide]	0.1 to 1
O=C(c1ccc2c(c1)N(c1ncc(-c3ccccc3)cn1)CC21CC1)N1C[C@H]2C[C@@H]1CN2 [Compound 248, [(1R,4R)-2,5-Diazabicyclo[2.2.1]heptan-2-yl]-[1-(5-phenyl-pyrimidin-2-yl)-spiro[1,2-dihydro-indole-3,1′-cyclopropane]-6-yl]-methanone]	0.1 to 1
Cc1ccnc(-c2cnc(N3CC4(CC4)c4ccc(C(=O)N5CC[C@@H](N)C5)cc43)nc2)c1 [Compound 334, [(3R)-3-Amino-pyrrolidin-1-yl]-[1-[5-(4-methyl-pyridin-2-yl)-pyrimidin-2-yl]-spiro[1,2-dihydro-indole-3,1′-cyclopropane]-6-yl]-methanone]	< 0.1
CN(CCO)C(=O)c1ccc2c(c1)N(c1ncc(-c3cc(C(F)(F)F)ccc3F)cn1)CC21CC1 [Compound 365, 1-[5-[2-Fluoro-5-(trifluoromethyl)-phenyl]-pyrimidin-2-yl]-N-(2-hydroxy-ethyl)-N-methyl-spiro[1,2-dihydro-indole-3,1′-cyclopropane]-6-carboxylic acid amide]	< 0.1
CNC(=O)CN(C)C(=O)c1ccc2c(c1)N(c1ncc(-c3cc(C)ccn3)cn1)CC21CC1 [Compound 360, N-Methyl-N-(methylcarbamoyl-methyl)-1-[5-(4-methyl-pyridin-2-yl)-pyrimidin-2-yl]-spiro[1,2-dihydro-indole-3,1′-cyclopropane]-6-carboxylic acid amide]	< 0.1
Cc1ccnc(-c2cnc(N3CC4(CC4)c4ccc(C(=O)N(C)CC(N)=O)cc43)nc2)c1 [Compound 300, N-(Carbamoyl-methyl)-N-methyl-1-[5-(4-methyl-pyridin-2-yl)-pyrimidin-2-yl]-spiro[1,2-dihydro-indole-3,1′-cyclopropane]-6-carboxylic acid amide]	< 0.1
COc1ccnc(-c2cnc(N3CC4(CC4)c4ccc(C(=O)N5CCNC(=O)C5)cc43)nc2)c1 [Compound 244, 4-[1-[5-(4-Methoxy-pyridin-2-yl)-pyrimidin-2-yl]-spiro[1,2-dihydro-indole-3,1′-cyclopropane]-6-carbonyl]-piperazin-2-one]	< 0.1
CN(CCO)C(=O)c1ccc2c(c1)N(c1ncc(-c3cccc([S+](C)[O-])c3)cn1)CC21CC1 (stereo not shown) [Compound 281, N-(2-Hydorxy-ethyl)-N-methyl-1-[5-[3-(methylsulfinyl)-phenyl]pyrimidin-2-yl]-spiro[1,2-dihydro-indole-3,1′-cyclopropane]-6-carboxylic acid amide]	< 0.1
Cc1cccc(-c2cnc(N3CC4(CC4)c4ccc(C(=O)N5CCNC(=O)C5)cc43)nc2)n1 [Compound 286, 4-[1-[5-(6-Methyl-pyridin-2-yl)-pyrimidin-2-yl]-spiro[1,2-dihydro-indole-3,1′-cyclopropane]-6-carbonyl]-piperazin-2-one]	< 0.1
COc1cc(C2CC2)cc(-c2cnc(N3CC4(CC4)c4ccc(C(=O)N(C)CCO)cc43)nc2)n1 [Compound 361, 1′-(5-(4-cyclopropyl-6-methoxypyridin-2-yl)pyrimidin-2-yl)-N-(2-hydroxyethyl)-N-methylspiro[cyclopropane-1,3′-indoline]-6′-carboxamide]	0.1 to 1
CCc1ccnc(-c2cnc(N3CC4(CC4)c4ccc(C(=O)N(C)C)cc43)nc2)c1 [Compound 270, 1-[5-(4-Ethyl-pyridin-2-yl)-pyrimidin-2-yl]-N,N-dimethyl-spiro[1,2-dihydro-indole-3,1′-cyclopropane]-6-carboxylic acid amide]	< 0.1
CN(CCO)C(=O)c1ccc2c(c1)N(c1ncc(-c3cc(CO)cs3)cn1)CC21CC1 [Compound 347, N-(2-Hydroxy-ethyl)-1-[5-[4-(hydroxymethyl)-thiophen-2-yl]-pyrimidin-2-yl]-N-methyl-spiro[1,2-dihydro-indole-3,1′-cyclopropane]-6-carboxylic acid amide]	< 0.1
CN(CCO)C(=O)c1ccc2c(c1)N(c1ncc(-c3nc(CCO)cs3)cn1)CC21CC1 [Compound 339, N-(2-Hydroxy-ethyl)-1-[5-[4-(2-hydroxy-ethyl)-thiaozl-2-yl]-pyrimidin-2-yl]-N-methyl-spiro[1,2-dihydro-indole-3,1′-cyclopropane]-6-carboxylic acid amide]	< 0.1
CN(CCO)C(=O)c1ccc2c(c1)N(c1ncc(-c3cc(N4CCCC4)ccc3F)cn1)CC21CC1 [Compound 359, 1-[5-(2-Fluoro-5-pyrrolidin-1-yl-phenyl)-pyrimidin-2-yl]-N-(2-hydroxy-ethyl)-N-methyl-spiro[1,2-dihydro-indole-3,1′-cyclopropane]-6-carboxylic acid amide]	< 0.1
CN(CCO)C(=O)c1ccc2c(c1)N(c1ncc(-c3cc(NCC4CC4)ccn3)cn1)CC21CC1 [Compound 319, 1-[5-[4-(Cyclopropyl-methylamino)-pyridin-2-yl]-pyrimidin-2-yl]-N-(2-hydroxy-ethyl)-N-methyl-spiro[1,2-dihydro-indole-3,1′-cyclopropane]-6-carboxylic acid amide]	< 0.1
Cc1ccnc(-c2cnc(N3CC4(CC4)c4ccc(C(=O)N(C)C)cc43)nc2)c1 [Compound 299, N,N-Dimethyl-1-[5-(4-methyl-pyridin-2-yl)-pyrimidin-2-yl]-spiro[1,2-dihydro-indole-3,1′-cyclopropane]-6-carboxylic acid amide]	< 0.1
O=C(c1ccc2c(c1)N(c1ncc(-c3ccccc3F)cn1)CC21CC1)N1CCC[C@@H](CO)C1 [Compound 313, [1-[5-(2-Fluorophenyl)-pyrimidin-2-yl]-spiro[1,2-dihydro-indole-3,1′-cyclopropane]-6-yl]-[(3R)-3-(hydroxymethyl)-piperidin-1-l]-methanone]	< 0.1
CC(=O)Nc1ccnc(-c2cnc(N3CC4(CC4)c4ccc(C(=O)N5C[C@@H]6C[C@H]5CN6)cc43)nc2)c1 [Compound 338, N-[2-[2-[6-[(1S,4S)-2,5-Diazabicyclo[2.2.1]heptane-2-carbonyl]-spiro[1,2-dihydro-indole-3,1′-cyclopropane]-1-yl]-pyrimidin-5-yl]-pyridin-4-yl]-acetamide]	< 0.1
